# Data published in ChEMBL document CHEMBL1201862, “PubChem BioAssay data set” (2004).
# Calls of active or inactive are those of the source.
# Experiments:
# [1] = target: T1, Short transient receptor potential channel 4 (Mus musculus, UniProt Q9QUQ5); assay: mouse TRPC4 channel activators, dose response, cell-based, HEK293 TRPC4/mu-opioid, Fluo-4 calcium (AID 434937); type: functional
# T1 sequence (Q9QUQ5 whole entry): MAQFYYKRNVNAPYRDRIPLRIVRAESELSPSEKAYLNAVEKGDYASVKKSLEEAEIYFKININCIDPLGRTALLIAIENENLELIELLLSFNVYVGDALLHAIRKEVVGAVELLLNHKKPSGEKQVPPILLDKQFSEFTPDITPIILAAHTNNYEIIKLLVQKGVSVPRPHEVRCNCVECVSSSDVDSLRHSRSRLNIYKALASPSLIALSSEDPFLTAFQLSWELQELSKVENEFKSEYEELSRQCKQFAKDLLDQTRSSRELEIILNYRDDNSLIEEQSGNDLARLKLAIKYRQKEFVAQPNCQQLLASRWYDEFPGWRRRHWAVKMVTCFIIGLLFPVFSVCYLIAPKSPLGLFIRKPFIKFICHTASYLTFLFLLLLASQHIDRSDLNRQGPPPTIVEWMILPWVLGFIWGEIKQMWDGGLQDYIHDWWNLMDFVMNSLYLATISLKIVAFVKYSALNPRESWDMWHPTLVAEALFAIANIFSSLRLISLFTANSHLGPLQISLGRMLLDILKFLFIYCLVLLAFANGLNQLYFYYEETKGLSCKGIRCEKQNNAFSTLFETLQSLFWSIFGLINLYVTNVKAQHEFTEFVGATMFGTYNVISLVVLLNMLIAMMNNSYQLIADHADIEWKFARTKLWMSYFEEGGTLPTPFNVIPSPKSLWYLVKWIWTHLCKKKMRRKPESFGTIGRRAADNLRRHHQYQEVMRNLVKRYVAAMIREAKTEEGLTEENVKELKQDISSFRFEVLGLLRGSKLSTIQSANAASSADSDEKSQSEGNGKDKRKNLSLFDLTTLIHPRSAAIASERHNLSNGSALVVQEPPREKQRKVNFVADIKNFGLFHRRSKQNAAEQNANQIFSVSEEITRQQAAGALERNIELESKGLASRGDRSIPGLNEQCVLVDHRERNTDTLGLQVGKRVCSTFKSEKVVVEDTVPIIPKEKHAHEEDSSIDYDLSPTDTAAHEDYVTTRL
# [2] = target: T2, Heat shock factor protein 1 (Mus musculus, UniProt P38532); assay: inhibition of MG132-induced HSE-luciferase signal, confirmation, cell-based, NIH3T3, luminescence, dose retest (AID 2382); type: functional;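 also: NIH3T3 fibroblasts with HSF1-driven luciferase reporter stressed by proteasome inhibitor MG132; luminescence from HSF1-driven luciferase expression after 8 hours of MG132 stress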
# T2 sequence (P38532 whole entry): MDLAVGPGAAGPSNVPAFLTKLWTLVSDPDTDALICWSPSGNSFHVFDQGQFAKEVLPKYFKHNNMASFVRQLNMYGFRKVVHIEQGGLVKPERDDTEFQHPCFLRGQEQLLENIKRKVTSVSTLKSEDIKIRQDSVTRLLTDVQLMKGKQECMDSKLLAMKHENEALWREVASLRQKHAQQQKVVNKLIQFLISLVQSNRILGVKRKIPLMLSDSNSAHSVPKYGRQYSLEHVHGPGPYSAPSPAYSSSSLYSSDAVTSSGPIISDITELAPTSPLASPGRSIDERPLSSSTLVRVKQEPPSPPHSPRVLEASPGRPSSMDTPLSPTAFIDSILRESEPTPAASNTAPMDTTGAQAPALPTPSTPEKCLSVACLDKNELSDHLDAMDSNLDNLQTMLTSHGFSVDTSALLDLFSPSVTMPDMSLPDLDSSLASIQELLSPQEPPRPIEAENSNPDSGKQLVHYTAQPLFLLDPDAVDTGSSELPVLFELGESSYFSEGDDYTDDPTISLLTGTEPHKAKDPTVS
# [3] = target: Voltage-dependent T-type calcium channel subunit alpha-1H (Homo sapiens, UniProt O95180); type: functional;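 also: channel activity triggered by adding a high calcium stimulation buffer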
# Streptococcus = assay: Group A Streptococcus viability loss, dose response, counter-screen for streptokinase expression inhibitor project, luminescence, BacTiterGlo (AID 1915); type: functional, organism-based;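 also: potency for reduction of bacterial viability or growth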
# [4] = tested on: Streptococcus sp. 'group A'; assay: growth inhibition of control SK(-) GAS strain, dose response, counter-screen for streptokinase expression inhibitor project, luminescence, kanamycin, BacTiterGlo, confirmation (AID 1900); type: functional, organism-based
# Cytochrome P450 1A2 = target: T3, Cytochrome P450 1A2 (Homo sapiens, UniProt P05177);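 also: PubChem cytochrome P450 panel assay, CYP1A2 panel member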
# T3 sequence (P05177 whole entry): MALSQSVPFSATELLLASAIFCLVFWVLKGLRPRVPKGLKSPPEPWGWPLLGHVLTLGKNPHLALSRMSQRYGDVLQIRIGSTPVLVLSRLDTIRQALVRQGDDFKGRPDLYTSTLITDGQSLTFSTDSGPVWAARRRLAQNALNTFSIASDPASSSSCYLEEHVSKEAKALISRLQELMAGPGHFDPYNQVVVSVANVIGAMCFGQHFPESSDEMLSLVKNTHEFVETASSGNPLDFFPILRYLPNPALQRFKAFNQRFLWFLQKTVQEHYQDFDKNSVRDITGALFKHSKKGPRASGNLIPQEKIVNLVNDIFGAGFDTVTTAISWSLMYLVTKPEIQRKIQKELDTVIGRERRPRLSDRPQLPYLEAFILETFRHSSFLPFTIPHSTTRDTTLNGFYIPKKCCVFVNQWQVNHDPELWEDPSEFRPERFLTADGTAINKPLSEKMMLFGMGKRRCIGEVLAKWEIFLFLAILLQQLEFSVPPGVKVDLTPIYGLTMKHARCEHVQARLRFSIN
# Cytochrome P450 2C19 = Cytochrome P450 2C19 (Homo sapiens, UniProt P33261); assay: Cytochrome panel assay with activity outcomes. Panel member name: p450-cyp2c19 Compounds with AC50 equal or less than 10 uM are considered active; type: functional; conditions: read-out: AC50
# Cytochrome P450 2C9 [5] = target: T4, Cytochrome P450 2C9 (Homo sapiens, UniProt P11712)
# Aminopeptidase N = target: T5, Aminopeptidase N (Plasmodium falciparum FcB1/Columbia, UniProt O96935); assay: P. falciparum M1AAP inhibitors, biochemical, fluorogenic H-Leu-NHMec substrate, 1536-well (AID 1445); design: species or system Plasmodium falciparum 3D7, 3D7
# T5 sequence (O96935 whole entry): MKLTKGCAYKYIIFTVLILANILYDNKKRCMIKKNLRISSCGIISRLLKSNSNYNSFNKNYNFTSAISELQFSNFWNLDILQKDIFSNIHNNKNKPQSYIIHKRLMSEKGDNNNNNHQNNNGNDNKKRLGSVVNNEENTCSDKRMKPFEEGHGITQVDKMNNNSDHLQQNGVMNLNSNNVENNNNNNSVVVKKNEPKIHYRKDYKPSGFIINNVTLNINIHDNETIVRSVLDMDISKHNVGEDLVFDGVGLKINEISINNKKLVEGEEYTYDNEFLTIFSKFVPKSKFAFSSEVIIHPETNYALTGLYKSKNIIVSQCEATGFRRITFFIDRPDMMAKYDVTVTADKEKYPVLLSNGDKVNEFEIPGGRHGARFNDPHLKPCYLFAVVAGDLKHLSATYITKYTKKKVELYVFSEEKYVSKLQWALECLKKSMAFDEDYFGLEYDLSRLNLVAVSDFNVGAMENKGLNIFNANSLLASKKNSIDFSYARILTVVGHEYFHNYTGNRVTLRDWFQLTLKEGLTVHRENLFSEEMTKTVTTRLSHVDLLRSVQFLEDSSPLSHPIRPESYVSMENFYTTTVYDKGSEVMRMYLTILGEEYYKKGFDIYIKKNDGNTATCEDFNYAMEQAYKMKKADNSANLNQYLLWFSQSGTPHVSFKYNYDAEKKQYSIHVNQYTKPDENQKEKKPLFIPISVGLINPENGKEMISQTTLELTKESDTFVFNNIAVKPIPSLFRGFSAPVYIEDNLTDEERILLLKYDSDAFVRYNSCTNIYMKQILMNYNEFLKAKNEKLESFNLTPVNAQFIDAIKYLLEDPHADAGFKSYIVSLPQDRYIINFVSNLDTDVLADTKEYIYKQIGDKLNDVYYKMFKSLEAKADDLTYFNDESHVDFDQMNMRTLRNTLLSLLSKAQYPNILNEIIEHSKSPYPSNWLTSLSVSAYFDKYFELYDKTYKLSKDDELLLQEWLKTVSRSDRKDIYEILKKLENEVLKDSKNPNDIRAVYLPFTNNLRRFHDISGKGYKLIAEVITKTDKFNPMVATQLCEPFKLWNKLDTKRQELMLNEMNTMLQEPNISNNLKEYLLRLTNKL
# Cytochrome P450 2C9 [6] = target: T4, Cytochrome P450 2C9; remark: listed apart in the source
# H9c2 = assay: cells; type: functional, cell-based; conditions: Rattus norvegicus, H9c2, Myocardium;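 also: confirmatory concentration-response retest of ultra-high-throughput screening hits for modulation of myocardial damage; cell death induced by hydrogen peroxide oxidative stress; compound pretreatment for 60 min then peroxide exposure for 2 h; potency is for protecting the cells against peroxide damage rather than for killing them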
# [7] = Luminescence Cell-Based Dose Retest to Confirm Inhibitors of Cancer Stem Cells. [Related pubchem assays (depositor defined):AID2717, AID2721]; type: functional; conditions: Homo sapiens
# Genome polyprotein = Genome polyprotein (dengue virus type 2, UniProt P29990); assay: Dengue-2 NS5 methyltransferase inhibitors, primary screen, biochemical, confirmation dose response (AID 588689); type: functional
# Vero = Vero cell cytotoxicity, cytotoxicity control for flavivirus capping enzyme inhibitors (AID 588742); type: functional; conditions: Chlorocebus sabaeus
# Voltage-dependent T-type calcium channel subunit alpha-1H, sequence (O95180 whole entry): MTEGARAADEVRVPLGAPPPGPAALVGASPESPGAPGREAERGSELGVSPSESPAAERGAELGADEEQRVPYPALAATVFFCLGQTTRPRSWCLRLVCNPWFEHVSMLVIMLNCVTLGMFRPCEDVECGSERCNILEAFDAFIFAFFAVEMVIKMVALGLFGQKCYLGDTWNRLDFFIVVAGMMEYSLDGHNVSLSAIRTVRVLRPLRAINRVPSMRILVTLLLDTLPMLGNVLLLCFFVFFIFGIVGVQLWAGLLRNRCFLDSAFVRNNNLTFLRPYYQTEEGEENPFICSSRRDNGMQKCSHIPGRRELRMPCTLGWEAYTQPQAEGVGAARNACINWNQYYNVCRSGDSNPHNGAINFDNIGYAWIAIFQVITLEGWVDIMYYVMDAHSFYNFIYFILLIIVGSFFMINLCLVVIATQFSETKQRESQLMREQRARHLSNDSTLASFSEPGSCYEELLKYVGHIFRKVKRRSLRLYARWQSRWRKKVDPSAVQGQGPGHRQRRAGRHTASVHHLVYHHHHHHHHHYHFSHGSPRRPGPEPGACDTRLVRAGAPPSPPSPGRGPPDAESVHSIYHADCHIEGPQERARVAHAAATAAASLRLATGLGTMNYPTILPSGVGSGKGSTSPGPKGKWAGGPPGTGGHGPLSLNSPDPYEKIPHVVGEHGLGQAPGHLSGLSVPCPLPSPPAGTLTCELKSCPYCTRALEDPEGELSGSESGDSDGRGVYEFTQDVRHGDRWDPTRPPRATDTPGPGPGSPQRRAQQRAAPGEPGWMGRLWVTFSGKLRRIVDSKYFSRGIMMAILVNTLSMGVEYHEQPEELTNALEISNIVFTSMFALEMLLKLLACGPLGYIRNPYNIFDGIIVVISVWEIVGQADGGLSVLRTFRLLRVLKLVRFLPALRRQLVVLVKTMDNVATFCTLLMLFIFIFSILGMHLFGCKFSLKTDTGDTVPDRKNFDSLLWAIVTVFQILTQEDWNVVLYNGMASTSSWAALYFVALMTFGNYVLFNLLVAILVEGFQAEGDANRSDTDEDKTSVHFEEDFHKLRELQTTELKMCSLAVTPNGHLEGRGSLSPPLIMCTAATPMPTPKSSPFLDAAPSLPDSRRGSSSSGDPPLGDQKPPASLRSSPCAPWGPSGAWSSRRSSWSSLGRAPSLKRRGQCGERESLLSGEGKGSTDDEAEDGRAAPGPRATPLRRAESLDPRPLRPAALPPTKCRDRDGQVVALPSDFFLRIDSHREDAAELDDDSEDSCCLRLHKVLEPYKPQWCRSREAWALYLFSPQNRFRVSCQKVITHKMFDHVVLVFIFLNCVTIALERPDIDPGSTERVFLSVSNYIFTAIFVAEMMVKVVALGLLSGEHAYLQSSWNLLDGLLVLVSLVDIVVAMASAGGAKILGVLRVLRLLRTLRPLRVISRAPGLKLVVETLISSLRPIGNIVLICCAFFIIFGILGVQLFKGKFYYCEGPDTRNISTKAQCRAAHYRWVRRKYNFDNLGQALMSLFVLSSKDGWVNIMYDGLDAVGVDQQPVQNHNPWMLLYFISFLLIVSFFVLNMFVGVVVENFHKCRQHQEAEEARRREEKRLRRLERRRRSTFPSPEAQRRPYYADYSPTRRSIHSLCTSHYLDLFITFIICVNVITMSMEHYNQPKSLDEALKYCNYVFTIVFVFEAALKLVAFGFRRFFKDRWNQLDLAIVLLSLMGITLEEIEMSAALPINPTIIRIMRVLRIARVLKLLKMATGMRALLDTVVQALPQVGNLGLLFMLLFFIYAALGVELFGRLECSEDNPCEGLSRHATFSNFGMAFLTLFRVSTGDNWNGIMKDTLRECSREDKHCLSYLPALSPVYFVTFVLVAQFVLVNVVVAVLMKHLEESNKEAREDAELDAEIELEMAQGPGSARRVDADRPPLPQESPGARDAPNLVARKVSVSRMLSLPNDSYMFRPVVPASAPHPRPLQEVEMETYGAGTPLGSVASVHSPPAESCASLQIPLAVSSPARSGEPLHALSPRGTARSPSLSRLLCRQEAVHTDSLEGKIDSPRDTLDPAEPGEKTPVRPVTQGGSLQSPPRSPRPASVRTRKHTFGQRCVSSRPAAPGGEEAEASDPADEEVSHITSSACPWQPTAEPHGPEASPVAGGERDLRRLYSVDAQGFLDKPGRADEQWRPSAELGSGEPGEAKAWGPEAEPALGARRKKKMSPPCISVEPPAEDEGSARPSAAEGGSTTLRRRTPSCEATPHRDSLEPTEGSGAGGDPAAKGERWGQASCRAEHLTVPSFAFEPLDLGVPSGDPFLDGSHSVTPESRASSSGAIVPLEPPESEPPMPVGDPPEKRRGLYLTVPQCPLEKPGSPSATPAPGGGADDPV
# T4 sequence (P11712 whole entry): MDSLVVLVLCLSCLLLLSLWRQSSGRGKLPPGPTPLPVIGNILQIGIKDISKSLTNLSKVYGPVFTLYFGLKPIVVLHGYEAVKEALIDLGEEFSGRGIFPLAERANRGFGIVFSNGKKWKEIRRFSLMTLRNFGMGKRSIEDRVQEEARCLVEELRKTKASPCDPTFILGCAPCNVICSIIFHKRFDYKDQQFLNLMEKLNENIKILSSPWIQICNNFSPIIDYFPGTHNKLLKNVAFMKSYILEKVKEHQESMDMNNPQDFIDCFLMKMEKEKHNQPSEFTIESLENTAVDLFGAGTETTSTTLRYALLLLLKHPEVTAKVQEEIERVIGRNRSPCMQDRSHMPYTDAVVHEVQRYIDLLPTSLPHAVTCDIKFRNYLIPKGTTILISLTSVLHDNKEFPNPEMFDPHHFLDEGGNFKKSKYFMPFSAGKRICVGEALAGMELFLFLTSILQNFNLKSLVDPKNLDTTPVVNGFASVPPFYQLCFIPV
# Genome polyprotein, sequence (P29990 2492-3391 limits assumed): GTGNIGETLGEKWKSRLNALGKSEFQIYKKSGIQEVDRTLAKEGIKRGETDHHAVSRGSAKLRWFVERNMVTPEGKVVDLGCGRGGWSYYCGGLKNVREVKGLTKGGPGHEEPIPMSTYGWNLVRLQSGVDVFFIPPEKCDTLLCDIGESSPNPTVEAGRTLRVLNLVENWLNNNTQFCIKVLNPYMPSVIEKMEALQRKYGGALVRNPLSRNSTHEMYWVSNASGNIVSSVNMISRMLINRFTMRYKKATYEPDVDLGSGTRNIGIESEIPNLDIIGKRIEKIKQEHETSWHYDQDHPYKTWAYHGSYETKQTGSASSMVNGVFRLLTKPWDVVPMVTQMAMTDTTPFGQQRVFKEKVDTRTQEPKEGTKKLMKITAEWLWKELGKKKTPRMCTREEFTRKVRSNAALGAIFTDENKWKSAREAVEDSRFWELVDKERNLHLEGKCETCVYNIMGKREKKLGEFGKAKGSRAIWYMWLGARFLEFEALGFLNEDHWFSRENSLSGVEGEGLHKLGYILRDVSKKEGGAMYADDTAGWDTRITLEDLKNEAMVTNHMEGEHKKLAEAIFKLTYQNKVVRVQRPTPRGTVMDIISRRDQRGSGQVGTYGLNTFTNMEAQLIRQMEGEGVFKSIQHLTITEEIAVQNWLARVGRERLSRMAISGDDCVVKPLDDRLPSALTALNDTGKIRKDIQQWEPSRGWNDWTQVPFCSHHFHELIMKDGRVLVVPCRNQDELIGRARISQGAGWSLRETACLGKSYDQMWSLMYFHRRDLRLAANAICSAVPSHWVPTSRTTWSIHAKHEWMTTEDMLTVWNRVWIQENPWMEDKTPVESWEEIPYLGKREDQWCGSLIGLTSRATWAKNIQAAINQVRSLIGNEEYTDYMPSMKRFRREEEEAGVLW
# Cytochrome P450 2C19, sequence (P33261 whole entry): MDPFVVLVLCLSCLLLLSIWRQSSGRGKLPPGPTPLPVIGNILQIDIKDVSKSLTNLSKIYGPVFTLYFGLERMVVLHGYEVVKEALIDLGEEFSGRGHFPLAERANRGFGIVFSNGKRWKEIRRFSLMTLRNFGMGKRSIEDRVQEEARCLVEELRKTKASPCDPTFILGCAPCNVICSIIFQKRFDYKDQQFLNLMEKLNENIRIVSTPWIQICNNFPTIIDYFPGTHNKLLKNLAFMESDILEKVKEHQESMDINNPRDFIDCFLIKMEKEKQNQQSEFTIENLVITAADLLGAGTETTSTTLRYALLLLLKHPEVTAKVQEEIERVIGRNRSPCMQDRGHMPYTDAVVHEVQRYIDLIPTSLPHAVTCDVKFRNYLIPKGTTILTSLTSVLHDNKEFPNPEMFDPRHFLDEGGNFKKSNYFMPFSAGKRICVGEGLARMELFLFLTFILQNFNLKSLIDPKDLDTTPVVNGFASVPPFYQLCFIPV
compound,measurement,setting,value
Cc1ccc(C)c(NC(S)=NCCc2c[nH]cn2)c1,EC50,[1],2.66 µM (active)
Cc1ccc(-n2nc(C)c3c2NC(=O)CSC3c2ccc3c(c2)OCO3)cc1 (stereo not drawn),EC50,[2],> 195 µM (not active)
same,EC50,[3],6.71 µM (active)
CCCc1ccc(OCC(=O)NNC(=S)NC(=O)c2ccco2)cc1,EC50,[1],6.68 µM (active)
same,EC50,Streptococcus,1.39 µM (active)
same,EC50,[4],0.069 µM (active)
Fc1ccc(N2CCN(c3ccc4c(C(F)(F)F)cc(C(F)(F)F)nc4n3)CC2)cc1,AC50,Cytochrome P450 1A2,5.01 µM (inconclusive)
same,AC50,Cytochrome P450 2C19,22.4 µM (inconclusive)
same,EC50,[3],4.13 µM (active)
same,AC50,Cytochrome P450 2C9 [5],inconclusive
Cc1ccc(S(=O)(=O)c2nc(NCCN(C)C)sc2Cl)cc1,IC50,Aminopeptidase N,12.7 µM (active)
O=C(CSc1nc2ccsc2c(=O)n1NC(=O)c1ccccc1)NCc1ccco1,IC50,Aminopeptidase N,72.1 µM (active)
CSc1cccc(NC(=O)CN(c2ccc(C)cc2C)S(C)(=O)=O)c1,EC50,[3],4.13 µM (active)
NS(=O)(=O)c1ccc(N2N=C(c3ccccc3)CC2c2cccc(F)c2)cc1 (stereo not drawn),IC50,Aminopeptidase N,47.6 µM (active)
O=C(CS(=O)(=O)Cc1ccccc1)N1CCN(c2cccc(C(F)(F)F)c2)CC1,IC50,Aminopeptidase N,105 µM (active)
CCCCN(CCCC)CP(=O)(c1ccccc1)c1ccccc1,EC50,[3],11.4 µM (active)
Cc1cccc(-c2nc(CN3CCCC(C(=O)NC4CCCCC4)C3)c(C)o2)c1 (stereo not drawn),AC50,Cytochrome P450 1A2,20 µM (inconclusive)
same,EC50,[3],2.14 µM (active)
same,AC50,Cytochrome P450 2C9 [6],28.2 µM (inconclusive)
O=C(CCn1nc(-c2ccccc2)c2ccccc2c1=O)N1CCN(c2ccccc2)CC1,IC50,H9c2,> 79 µM (inactive)
same,EC50,[3],7.63 µM (active)
Cc1ccc(NC(S)=NCCc2c[nH]cn2)cc1C,EC50,[1],0.267 µM (active)
O=C(c1cccs1)N1CCN(c2ncc(Br)cn2)CC1,EC50,[1],0.668 µM (active)
Cc1[nH]n(-c2ncc(-c3ccc(Cl)cc3)s2)c(=O)c1C(c1ccc(Cl)cc1)C(C#N)C#N (stereo not drawn),AC50,[7],2.97 µM (active)
same,IC50,Genome polyprotein,23 µM (active)
same,CC50,Vero,> 40 µM (active)
COc1ccc(/N=c2\oc3c(OC)cccc3cc2C(=O)NCc2ccco2)c(OC)c1,IC50,Genome polyprotein,40.8 µM (active)
same,CC50,Vero,> 40 µM (active)
